PubChem BioAssay AID1259407 (Chemical Carcinogenesis Research Information System (CCRIS), 2018)
Calls of active or inactive are those of the source. No rule for the calls is given here. Where a SMILES comes first, the peptide text is derived from it.

System: CCRIS mutagenicity, Ames/micronucleus/aberration tests
Experiment: CCRIS mutagenicity studies
[1] = Test System: AMES SALMONELLA TYPHIMURIUM, Strain/Indicator: TA98, Metabolic Activation: NONE, Method: STANDARD PLATE
[2] = Test System: AMES SALMONELLA TYPHIMURIUM, Strain/Indicator: TA98, Metabolic Activation: RAT, LIVER, S-9, PHENOBARBITAL, Method: STANDARD PLATE
[3] = Test System: AMES SALMONELLA TYPHIMURIUM, Strain/Indicator: TA100, Metabolic Activation: NONE, Method: STANDARD PLATE
[4] = Test System: AMES SALMONELLA TYPHIMURIUM, Strain/Indicator: TA100, Metabolic Activation: RAT, LIVER, S-9, PHENOBARBITAL, Method: STANDARD PLATE
[5] = Test System: AMES SALMONELLA TYPHIMURIUM, Strain/Indicator: TA1535, Metabolic Activation: NONE, Method: STANDARD PLATE
[6] = Test System: AMES SALMONELLA TYPHIMURIUM, Strain/Indicator: TA1535, Metabolic Activation: RAT, LIVER, S-9, PHENOBARBITAL, Method: STANDARD PLATE
[7] = Test System: AMES SALMONELLA TYPHIMURIUM, Strain/Indicator: TA1538, Metabolic Activation: NONE, Method: STANDARD PLATE

`COP(=S)(OC)SCN1C(=O)c2ccccc2C1=O` was tested, and the mutagenic call (Test System: AMES SALMONELLA TYPHIMURIUM, Strain/Indicator: TA97, Metabolic Activation: NONE, Method: STANDARD PLATE) was “active; positive”, the mutagenic call (Test System: AMES SALMONELLA TYPHIMURIUM, Strain/Indicator: TA97, Metabolic Activation: RAT, LIVER, S-9, DELOR 103, Method: STANDARD PLATE) was “active; positive” and the mutagenic call (Test System: AMES SALMONELLA TYPHIMURIUM, Strain/Indicator: TA97, Metabolic Activation: RAT, LIVER, S-9, PHENOBARBITAL, Method: STANDARD PLATE) was “active; positive”. For the same compound, the mutagenic call [1] was “inactive; negative”, the mutagenic call (Test System: AMES SALMONELLA TYPHIMURIUM, Strain/Indicator: TA98, Metabolic Activation: RAT, LIVER, S-9, DELOR 103, Method: STANDARD PLATE) was “inactive; negative” and the mutagenic call [2] was “inactive; negative”. For the same compound, the mutagenic call [3] was “active; positive”, the mutagenic call (Test System: AMES SALMONELLA TYPHIMURIUM, Strain/Indicator: TA100, Metabolic Activation: RAT, LIVER, S-9, DELOR 103, Method: STANDARD PLATE) was “active; positive” and the mutagenic call [4] was “active; positive”. The mutagenic call (Test System: AMES SALMONELLA TYPHIMURIUM, Strain/Indicator: TA100, Metabolic Activation: S-9 MIX, Method: STANDARD PLATE) was “active; positive”, the mutagenic call [5] was “inactive; negative” and the mutagenic call (Test System: AMES SALMONELLA TYPHIMURIUM, Strain/Indicator: TA1535, Metabolic Activation: RAT, LIVER, S-9, DELOR 103, Method: STANDARD PLATE) was “inactive; negative”. The mutagenic call [6] was “inactive; negative”, the mutagenic call [7] was “inactive; negative” and the mutagenic call (Test System: AMES SALMONELLA TYPHIMURIUM, Strain/Indicator: TA1538, Metabolic Activation: RAT, LIVER, S-9, DELOR 103, Method: STANDARD PLATE) was “inactive; negative”. For the same compound, the mutagenic call (Test System: AMES SALMONELLA TYPHIMURIUM, Strain/Indicator: TA1538, Metabolic Activation: RAT, LIVER, S-9, PHENOBARBITAL, Method: STANDARD PLATE) was “inactive; negative”, the mutagenic call (Test System: CHINESE HAMSTER V-79, Strain/Indicator: V-79/6-THIOGUANINE, Metabolic Activation: NONE, Method: RESPREADING) was “inactive; negative” and the mutagenic call (Test System: CHINESE HAMSTER V-79, Strain/Indicator: V-79/6-THIOGUANINE, Metabolic Activation: RAT, LIVER, S-9, Method: RESPREADING) was “active; positive”.
With `Cc1cccc2ccc3c4ccccc4ccc3c12` the mutagenic call (Test System: AMES SALMONELLA TYPHIMURIUM, Strain/Indicator: TA100, Metabolic Activation: RAT, LIVER, MICROSOMES, 4-METHYLCHRYSENE, Method: STANDARD PLATE) was “inactive; negative”, the mutagenic call (Test System: AMES SALMONELLA TYPHIMURIUM, Strain/Indicator: TA100, Metabolic Activation: RAT, LIVER, MICROSOMES, AROCLOR 1254, Method: STANDARD PLATE) was “active; positive” and the mutagenic call (Test System: AMES SALMONELLA TYPHIMURIUM, Strain/Indicator: TA100, Metabolic Activation: RAT, LIVER, MICROSOMES, Method: STANDARD PLATE) was “inactive; negative”.
With `COC(=O)[C@H](Cc1ccccc1)NC(=O)[C@@H](N)CC(=O)O` (H-Asp-Phe-OMe) the mutagenic call (End Point: In vivo micronucleus, Test System: Bone marrow polychromatic erythrocytes, Species: Rat, Strain/Sex: F344/N, Male, Route: Oral) was “inactive; negative”, the mutagenic call (End Point: In vivo micronucleus, Test System: Peripheral blood normochromatic erythrocytes, Species: Mouse, Strain/Sex: B6.129-Cdkn2atm1Rdp (N2) Cdkn2a deficient/Female, Route: Oral) was “inactive; negative” and the mutagenic call (End Point: In vivo micronucleus, Test System: Peripheral blood normochromatic erythrocytes, Species: Mouse, Strain/Sex: B6.129-Cdkn2atm1Rdp (N2) Cdkn2a deficient/Male, Route: Oral) was “inactive; negative”. The mutagenic call (End Point: In vivo micronucleus, Test System: Peripheral blood normochromatic erythrocytes, Species: Mouse, Strain/Sex: B6.129-Trp53tm1Brd (N5) p53 Haploinsufficient/Female, Route: Oral) was “active; positive (significant trend test and significant (p=0.0004) increase in frequenc”, the mutagenic call (End Point: In vivo micronucleus, Test System: Peripheral blood normochromatic erythrocytes, Species: Mouse, Strain/Sex: B6.129-Trp53tm1Brd (N5) p53 Haploinsufficient/Male, Route: Oral) was “inactive; negative” and the mutagenic call (End Point: In vivo micronucleus, Test System: Peripheral blood normochromatic erythrocytes, Species: Mouse, Strain/Sex: FVB Tg.Ac hemizygous/Female, Route: Oral) was “inactive; negative”. For the same compound, the mutagenic call (End Point: In vivo micronucleus, Test System: Peripheral blood normochromatic erythrocytes, Species: Mouse, Strain/Sex: FVB Tg.Ac hemizygous/Male, Route: Oral) was “inactive; negative”, the mutagenic call (Test System: Ames Salmonella typhimurium, Strain/Indicator: TA97, Metabolic Activation: Hamster, liver, S-9, Aroclor 1254, 10 and 30%, Method: Preincubation) was “inactive; negative” and the mutagenic call (Test System: Ames Salmonella typhimurium, Strain/Indicator: TA97, Metabolic Activation: None, Method: Preincubation) was “inactive; negative”. The mutagenic call (Test System: Ames Salmonella typhimurium, Strain/Indicator: TA97, Metabolic Activation: Rat, liver, S-9, Aroclor 1254 (10% or 30%), Method: Preincubation) was “active; positive in two trials with 30% s-9”, the mutagenic call (Test System: Ames Salmonella typhimurium, Strain/Indicator: TA98, Metabolic Activation: Hamster, liver, S-9, Aroclor 1254, 10 and 30%, Method: Preincubation) was “inactive; negative” and the mutagenic call (Test System: Ames Salmonella typhimurium, Strain/Indicator: TA98, Metabolic Activation: None, Method: Preincubation) was “inactive; negative”. For the same compound, the mutagenic call (Test System: Ames Salmonella typhimurium, Strain/Indicator: TA98, Metabolic Activation: Rat, liver, S-9, Aroclor 1254, 10 and 30%, Method: Preincubation) was “inactive; negative”, the mutagenic call (Test System: Ames Salmonella typhimurium, Strain/Indicator: TA100, Metabolic Activation: Hamster, liver, S-9, Aroclor 1254, 10 and 30%, Method: Preincubation) was “inactive; negative” and the mutagenic call (Test System: Ames Salmonella typhimurium, Strain/Indicator: TA100, Metabolic Activation: None, Method: Preincubation) was “inactive; negative”. For the same compound, the mutagenic call (Test System: Ames Salmonella typhimurium, Strain/Indicator: TA100, Metabolic Activation: Rat, liver, S-9, Aroclor 1254, 10 and 30%, Method: Preincubation) was “inactive; negative”, the mutagenic call (Test System: Ames Salmonella typhimurium, Strain/Indicator: TA1535, Metabolic Activation: Hamster, Liver, S-9, Aroclor 1254, 10 and 30%, Method: Preincubation) was “inactive; negative” and the mutagenic call (Test System: Ames Salmonella typhimurium, Strain/Indicator: TA1535, Metabolic Activation: None, Method: Preincubation) was “inactive; negative”. The mutagenic call (Test System: Ames Salmonella typhimurium, Strain/Indicator: TA1535, Metabolic Activation: Rat, liver, S-9, Aroclor 1254, 10 and 30%, Method: Preincubation) was “inactive; negative” and the mutagenic call (Test System: Ames Salmonella typhimurium, Strain/Indicator: TA1537, Metabolic Activation: Rat, liver, S-9, Aroclor 1254, 30%, Method: Preincubation) was “inactive; negative”.
With `C[C@]12CCC(=O)C=C1CC[C@@H]1[C@@H]2[C@@H](O)C[C@@]2(C)[C@H]1CC[C@]2(O)C(=O)CO` the mutagenic call (End Point: IN VITRO CHROMOSOMAL ABERRATIONS, Test System: HUMAN PERIPHERAL BLOOD LYMPHOCYTES, Metabolic Activation: NONE) was “active; positive” and the mutagenic call (Test System: UDS RAT HEPATOCYTES, Strain/Indicator: THY INCORP (18-20 HR), Metabolic Activation: NONE, Method: LIQUID SCINTILLATION COUNTING) was “inactive; negative”.
With `CCN(CCCl)CCCNc1c2ccc(Cl)cc2nc2ccc(OC)nc12` the mutagenic call [1] was “active; positive”, the mutagenic call [3] was “active; positive” and the mutagenic call [5] was “inactive; negative”. The mutagenic call (Test System: AMES SALMONELLA TYPHIMURIUM, Strain/Indicator: TA1536, Metabolic Activation: NONE, Method: STANDARD PLATE) was “active; positive”, the mutagenic call (Test System: AMES SALMONELLA TYPHIMURIUM, Strain/Indicator: TA1537, Metabolic Activation: NONE, Method: STANDARD PLATE) was “active; positive” and the mutagenic call [7] was “active; positive”.
In the case of `COc1cccc2c1CC([N+](=O)[O-])c1ccc3c(c1-2)OCO3` (stereo not drawn), the mutagenic call (Test System: AMES SALMONELLA TYPHIMURIUM, Strain/Indicator: D3052, Metabolic Activation: NONE, Method: STANDARD PLATE) is reported as “inactive; negative”, the mutagenic call (Test System: AMES SALMONELLA TYPHIMURIUM, Strain/Indicator: D3052, Metabolic Activation: RAT, LIVER, S-9, PHENOBARBITAL, Method: STANDARD PLATE) is reported as “inactive; negative” and the mutagenic call (Test System: AMES SALMONELLA TYPHIMURIUM, Strain/Indicator: G46, Metabolic Activation: NONE, Method: STANDARD PLATE) is reported as “inactive; negative”. The mutagenic call (Test System: AMES SALMONELLA TYPHIMURIUM, Strain/Indicator: G46, Metabolic Activation: RAT, LIVER, S-9, PHENOBARBITAL, Method: STANDARD PLATE) was “inactive; negative”, the mutagenic call [1] was “active; positive” and the mutagenic call [2] was “active; positive”. The mutagenic call [3] was “active; positive”, the mutagenic call [4] was “active; positive” and the mutagenic call [5] was “active; positive”. The mutagenic call [6] was “active; positive”, the mutagenic call (Test System: AMES SALMONELLA TYPHIMURIUM, Strain/Indicator: TA1978, Metabolic Activation: NONE, Method: STANDARD PLATE) was “inactive; negative” and the mutagenic call (Test System: AMES SALMONELLA TYPHIMURIUM, Strain/Indicator: TA1978, Metabolic Activation: RAT, LIVER, S-9, PHENOBARBITAL, Method: STANDARD PLATE) was “inactive; negative”.
In the case of `Nc1ccc(CC(=O)O)cc1`, the mutagenic call [1] is reported as “inactive; negative” and the mutagenic call (Test System: AMES SALMONELLA TYPHIMURIUM, Strain/Indicator: TA98, Metabolic Activation: RAT, LIVER, S-9, Method: STANDARD PLATE) is reported as “active; positive”.
